Reference: patent US11779536B2 (Ocular Therapeutix, Inc., priority 2020, dated 2023)
“And” between values parts separate entries of the source, which are not always exact repeats. Equal entries are not always repeated. Where two headings read alike, the source gives them in different places.

Tests used:
[1] = for Cyclosporine per insert Mean ± SD: initial 671±13 μg; for Cyclosporine per insert, OD: 0.67 mg insert (initial 671±13 μg), 9% 4a20K SG/trilysine
[2] = beagle, insert nominal dose 0.7 mg, in 6 weeks
[3] = Proof of concept PK study Example 3.2: cyclosporine tear fluid concentration and drug released from inserts; type: in vivo, beagle dogs; conditions: beagle, insert nominal dose 0.44 mg, over 32 days, assuming consistent daily release
Excerpt: Inserts were removed at 32 days to determine the amount of remaining drug compared to the administered dose.

## CC=CCC(C)C(O)C1C(=O)NC(CC)C(=O)N(C)CC(=O)N(C)C(CC(C)C)C(=O)NC(C(C)C)C(=O)N(C)C(CC(C)C)C(=O)NC(C)C(=O)NC(C)C(=O)N(C)C(CC(C)C)C(=O)N(C)C(CC(C)C)C(=O)N(C)C(C(C)C)C(=O)N1C (centres unmarked) [cyclosporine, 30-ethyl-33-(1-hydroxy-2-methylhex-4-enyl)-1,4,7,10,12,15,19,25,28-nonamethyl-6,9,18,24-tetrakis(2-methylpropyl)-3,21-di(propan-2-yl)-1,4,7,10,13,16,19,22,25,28,31-undecazacyclotritriacontane-2,5,8,11,14,17,20,23,26,29,32-undecone]
[1]; amount left in inserts removed from beagles at day 28, all eyes
  Cyclosporine per insert Mean ± SD: 576 ± 18 µg
[1]; amount left in inserts removed from beagles at day 50, all eyes
  Cyclosporine per insert Mean ± SD: 494 ± 32 µg
[1]; amount left in single insert removed from beagle right eye at day 28
  Cyclosporine per insert, OD: 596 µg
[1]; amount left in single insert removed from beagle right eye at day 50
  Cyclosporine per insert, OD: 520 µg and 521 µg and 451 µg
[1]; beagle, initial dose 671±13 μg, 28 days
  released amount: 3.4 µg
[1]; beagle, initial dose 671±13 μg, 50 days
  released amount: 3.5 µg
[1]; beagle, initial dose 671±13 μg, inserts removed at 28 days
  amount of cyclosporine left in the removed insert: 576 ± 18 µg
[1]; beagle, initial dose 671±13 μg, inserts removed at 50 days
  amount of cyclosporine left in the removed insert: 494 ± 32 µg
[1]; beagle, initial dose 671±13 μg, over 28 and 50 days
  daily estimated delivered dose: approximately 3.5 μg/day
[2]
  average amount of cyclosporine released: 0.37 mg
[3]
  estimated daily delivered dose: 6.3 µg/day
